# Patent US12661364B2, “Remedy for hair growth enhancing” (GURUS BIOPHARM INC., priority 2019, dated 2026)
# Legend:
# [1] = Stability of the cosmetic composition during accelerated storage at room temperature (HPLC content of the combination's components); type: physicochemical; settings: for Stability / content in the cosmetic composition during accelerated storage (in words): room temperature, 20 degrees above the recommended +4 to +8° C.; for Prostaglandin F2 content, % (as % to the initial one): +25-27° C., measurement error 5%
# Method: The cosmetic composition for stimulation of hair growth (example of composition 1 according to the invention, see above) was held at +25-27° C. for 2 months. Samples were taken every week and analyzed for the content of the components of the combination by HPLC. To prepare a sample for analysis, 1 g of gel was taken from the cosmetic composition into a round-bottom glass centrifuge tube and 2 g of distilled ethyl acetate were added. The mixture was shaken on a Multi-Vortex V32 until the liquids were completely mixed for 3 min. The resulting suspension was centrifuged for 5 min at 6000 rpm for complete separation of the layers. The upper layer (ethyl acetate layer) was carefully removed with a glass pipette and transferred to a conical-bottom flask (V25 mL). Another 2 g of distilled ethyl acetate were added to the solution remaining in the test tube, and the extraction procedure was repeated once again. The upper layer (ethyl acetate layer) was carefully removed with a glass pipette and added to the previously collected solution. The organic layer was evaporated on a rotary evaporator and dried in an oil pump vacuum. The residue was dissolved in ethanol to obtain a solution with an ethanol concentration of 26 mg/100 μL. The extract was analyzed by microcolumn reversed-phase HPLC in an acetonitrile-water gradient system (linear gradient, 5→100% acetonitrile). The components of the combination of the invention were identified by comparison with reference standards. The quantity of each component was estimated by the signal area in the chromatogram.
# scalp hair growth = settings: 0.1% latanoprost applied to the scalp, after 24 weeks; cited from earlier work
structure (smiles),measurement,setting,value
"CCCCC[C@H](O)/C=C/[C@H]1[C@H](O)CC(=O)[C@@H]1C/C=C\CCCC(=O)OC(CO[N+](=O)[O-])CO[N+](=O)[O-] [(Z)-1,3-bis(nitroxy)propanyl-2-7-((1R,2R,3R)-3-hydroxy-2-((S,E)-3-hydroxyoctene-1-yl-1)-5-oxocyclopentenyl)-5-heptenoate]",Stability / content in the cosmetic composition during accelerated storage (in words),[1],decreases over time
"CCCCC[C@H](O)/C=C/[C@H]1[C@H](O)CC(=O)[C@@H]1CCCCCCC(=O)OC(CO[N+](=O)[O-])CO[N+](=O)[O-] [E1, (Z)-1,3-bis(nitroxy)propan-2-yl-7-((1R,2R,3R)-3-hydroxy-2-((S,E)-3-hydroxyoct-1-en-1-yl)-5-xocyclopentyl)heptanoate]",Stability / content in the cosmetic composition during accelerated storage (in words),[1],decreases over time
CC(C)OC(=O)CCC/C=C\C[C@@H]1[C@@H](CC[C@@H](O)CCc2ccccc2)[C@H](O)C[C@@H]1O [latanoprost],Hair density (terminal and vellus hair),scalp hair growth,significant increase in hair density
CCCCC[C@H](O)/C=C/[C@@H]1[C@@H](C/C=C\CCCC(=O)N[C@H](CO)C(=O)OC(C)C)[C@@H](O)C[C@H]1O [modified prostaglandin F2],"Prostaglandin F2 content, % (as % to the initial one)","[1]; hold time 0 weeks, cosmetic composition for stimulation of hair growth",100%
same,"Prostaglandin F2 content, % (as % to the initial one)",[1]; hold time 1 week,100%
same,"Prostaglandin F2 content, % (as % to the initial one)",[1]; hold time 2 weeks,100%
same,"Prostaglandin F2 content, % (as % to the initial one)",[1]; hold time 3 weeks,99%
same,"Prostaglandin F2 content, % (as % to the initial one)",[1]; hold time 4 weeks,99%
same,"Prostaglandin F2 content, % (as % to the initial one)",[1]; hold time 5 weeks,98%
same,"Prostaglandin F2 content, % (as % to the initial one)",[1]; hold time 6 weeks,98%
same,Stability / content in the cosmetic composition during accelerated storage (in words),[1],decreases very slowly
